Common to all, as to format: biochemical
One assay has as its target T1, Itk (Homo sapiens, UniProt Q08881).
T1 sequence (Q08881 1-620): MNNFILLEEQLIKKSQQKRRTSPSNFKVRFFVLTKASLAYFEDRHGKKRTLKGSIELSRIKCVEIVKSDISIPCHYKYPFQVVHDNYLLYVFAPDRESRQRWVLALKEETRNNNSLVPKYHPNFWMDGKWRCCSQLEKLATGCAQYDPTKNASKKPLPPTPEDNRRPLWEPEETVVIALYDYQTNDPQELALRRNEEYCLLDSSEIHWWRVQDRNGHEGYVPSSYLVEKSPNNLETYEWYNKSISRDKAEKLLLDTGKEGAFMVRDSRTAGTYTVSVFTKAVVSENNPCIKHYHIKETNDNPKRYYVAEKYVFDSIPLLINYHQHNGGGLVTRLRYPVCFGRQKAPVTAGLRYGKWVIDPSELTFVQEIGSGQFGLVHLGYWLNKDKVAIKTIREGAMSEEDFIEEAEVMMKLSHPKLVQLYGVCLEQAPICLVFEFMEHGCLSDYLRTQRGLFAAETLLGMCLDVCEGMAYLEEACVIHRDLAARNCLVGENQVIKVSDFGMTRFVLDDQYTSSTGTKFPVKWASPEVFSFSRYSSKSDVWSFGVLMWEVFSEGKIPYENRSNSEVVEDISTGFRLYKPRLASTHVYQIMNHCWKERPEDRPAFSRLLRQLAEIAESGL
Kind of assay: ITK Inhibition Assay (Radiometric), radioactive-phosphate incorporation. The conditions noted are these: enzyme inhibition data (Ki), Table 11; radiometric or UV assay not stated. The protocol:
Assays are carried out in a mixture of 20 mM MOPS (pH 7.0), 10 mM MgCl2, 0.1% BSA and 1 mM DTT. Final substrate concentrations in the assay are 7.5 μM [γ-33P]ATP (400 mCi 33P ATP/mmol ATP, Amersham Pharmacia Biotech/Sigma Chemicals) and 3 μM peptide (SAM68 protein D332-443). Assays are carried out at 25° C. in the presence of 50 nM Itk. An assay stock buffer solution is prepared containing all of the reagents listed above, with the exception of ATP and the test compound of interest. 50 μL of the stock solution is placed in a 96 well plate followed by addition of 2 μL of DMSO stock containing serial dilutions of the test compound (typically starting from a final concentration of 50 μM with 2-fold serial dilutions) in duplicate (final DMSO concentration 2%). The plate is pre-incubated for 10 minutes at 25° C. and the reaction initiated by addition of 50 μL [γ-33P]ATP (final concentration 7.5 μM).
The reaction is stopped after 10 minutes by the addition of […] 0.2M phosphoric acid+0.01% TWEEN 20. A multiscreen phosphocellulose filter 96-well plate (Millipore, Cat no. MAPHN0B50) is pretreated with 100 μL 0.2M phosphoric acid +0.01% TWEEN 20 prior to the addition of […] of the stopped assay mixture. The plate is washed with 4×200 μL 0.2M phosphoric acid+0.01% TWEEN 20. After drying, 30 μL Optiphase ‘SuperMix’ liquid scintillation cocktail (Perkin Elmer) is added to the well prior to scintillation counting (1450 Microbeta Liquid Scintillation Counter, Wallac).
Ki(app) data are calculated from non-linear regression analysis of the initial rate data using the Prism software package (GraphPad Prism version 3.0cx for Macintosh, GraphPad Software, San Diego Calif., USA).

The target in another assay is T2, JAK3 (Homo sapiens, UniProt P52333).
T2 sequence (P52333 1-1124): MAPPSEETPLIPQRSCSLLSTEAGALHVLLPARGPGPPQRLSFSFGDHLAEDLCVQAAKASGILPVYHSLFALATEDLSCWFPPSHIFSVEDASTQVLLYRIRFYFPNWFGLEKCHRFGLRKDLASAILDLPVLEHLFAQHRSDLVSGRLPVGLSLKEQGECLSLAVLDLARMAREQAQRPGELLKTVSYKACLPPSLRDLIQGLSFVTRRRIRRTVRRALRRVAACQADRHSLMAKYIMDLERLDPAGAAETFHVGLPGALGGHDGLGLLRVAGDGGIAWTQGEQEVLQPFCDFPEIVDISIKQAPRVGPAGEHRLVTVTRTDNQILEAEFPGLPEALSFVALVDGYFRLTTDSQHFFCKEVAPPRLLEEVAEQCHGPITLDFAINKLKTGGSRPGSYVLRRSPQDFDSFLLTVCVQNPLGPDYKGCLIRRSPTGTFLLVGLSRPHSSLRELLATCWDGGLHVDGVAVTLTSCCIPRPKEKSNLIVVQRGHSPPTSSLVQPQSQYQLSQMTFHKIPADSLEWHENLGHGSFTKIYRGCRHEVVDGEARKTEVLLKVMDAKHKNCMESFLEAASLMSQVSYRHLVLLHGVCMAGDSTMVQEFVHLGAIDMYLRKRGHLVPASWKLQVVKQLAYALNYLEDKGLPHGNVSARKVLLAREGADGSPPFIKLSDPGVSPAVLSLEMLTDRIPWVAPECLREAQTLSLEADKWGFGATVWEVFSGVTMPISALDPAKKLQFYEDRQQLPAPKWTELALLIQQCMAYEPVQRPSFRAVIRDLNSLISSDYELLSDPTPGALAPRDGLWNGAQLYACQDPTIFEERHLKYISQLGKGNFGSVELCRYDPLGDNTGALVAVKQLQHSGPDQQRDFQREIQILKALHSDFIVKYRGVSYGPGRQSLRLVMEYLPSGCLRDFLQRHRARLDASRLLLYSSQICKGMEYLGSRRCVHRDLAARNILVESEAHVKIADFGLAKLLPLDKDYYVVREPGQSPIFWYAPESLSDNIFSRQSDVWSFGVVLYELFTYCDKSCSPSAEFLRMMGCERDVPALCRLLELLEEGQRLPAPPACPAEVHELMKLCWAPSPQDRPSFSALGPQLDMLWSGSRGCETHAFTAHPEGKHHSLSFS
The assay can be described thus: JAK3 Inhibition Assay, 33P incorporation. The conditions noted are these: enzyme inhibition data (Ki), Table 11. As for the experimental part: Reactions are carried out in a kinase buffer containing 100 mM HEPES (pH 7.4), 1 mM DTT, 10 mM MgCl2, 25 mM NaCl, and 0.01% BSA. Substrate concentrations in the assay are 5 μM ATP (200 uCi/μmole ATP) and 1 μM poly(Glu)4Tyr. Reactions are carried out at 25° C. and 1 nM JAK3. To each well of a 96 well polycarbonate plate is added 1.5 μl of a candidate JAK3 inhibitor along with 50 μl of kinase buffer containing 2 μM poly(Glu)4Tyr and 10 μM ATP. This is then mixed and 50 μl of kinase buffer containing 2 nM JAK3 enzyme is added to start the reaction. After 20 minutes at room temperature (25 C), the reaction is stopped with 50 μl of 20% trichloroacetic acid (TCA) that also contained 0.4 mM ATP. The entire contents of each well are then transferred to a 96 well glass fiber filter plate using a TomTek Cell Harvester. After washing, 60 μl of scintillation fluid is added and ^33P incorporation detected on a Perkin Elmer TopCount.

Another assay deals with c-Met (Homo sapiens, UniProt P08581). Kind of assay: c-Met Inhibition Assay, coupled enzyme system. The conditions noted are these: enzyme inhibition data (Ki), Table 11. The protocol:
Compounds are screened for their ability to inhibit c-Met kinase activity using a standard coupled enzyme system (Fox et al., Protein Sci. 1998, 7, 2249). Reactions are carried out in a solution containing 100 mM HEPES (pH 7.5), 10 mM MgCl2, 25 mM NaCl, 300 μM NADH, 1 mM DTT, and 1.5% DMSO. Final substrate concentrations in the assay are 200 μM ATP (Sigma Chemicals, St Louis, Mo.) and 10 μM polyGluTyr (Sigma Chemical Company, St. Louis). Reactions are carried out at 30° C. and 80 nM c-Met. Final concentrations of the components of the coupled enzyme system are 2.5 mM phosphoenolpyruvate, 300 μM NADH, 30 μg/ml pyruvate kinase and 10 μg/ml lactate dehydrogenase.
An assay stock buffer solution is prepared containing all of the reagents listed above with the exception of ATP and a test compound of the present invention. The assay stock buffer solution (175 μl) is incubated in a 96 well plate with 5 μl of the test compound of the present invention at final concentrations spanning 0.006 μM to 12.5 μM at 30° C. for 10 minutes. Typically, a 12-point titration is conducted by preparing serial dilutions (from 10 mM compound stocks) with DMSO of the test compounds of the present invention in daughter plates. The reaction is initiated by the addition of 20 μl of ATP (final concentration 200 μM). Rates of reaction are obtained using a Molecular Devices Spectramax plate reader (Sunnyvale, Calif.) over 10 minutes at 30° C. The Ki values are determined from the rate data as a function of inhibitor concentration.

Consider 25 compounds from patent publication US7528138B2, “Pyrazolo[1,5-a]pyrimidines useful as inhibitors of protein kinases” (Vertex Pharmaceuticals Incorporated, priority 2004, dated 2009).

Broadly, the Ki is the equilibrium dissociation constant of an inhibitor or competing ligand from its target.

c-Met, sequence (P08581 25-1390): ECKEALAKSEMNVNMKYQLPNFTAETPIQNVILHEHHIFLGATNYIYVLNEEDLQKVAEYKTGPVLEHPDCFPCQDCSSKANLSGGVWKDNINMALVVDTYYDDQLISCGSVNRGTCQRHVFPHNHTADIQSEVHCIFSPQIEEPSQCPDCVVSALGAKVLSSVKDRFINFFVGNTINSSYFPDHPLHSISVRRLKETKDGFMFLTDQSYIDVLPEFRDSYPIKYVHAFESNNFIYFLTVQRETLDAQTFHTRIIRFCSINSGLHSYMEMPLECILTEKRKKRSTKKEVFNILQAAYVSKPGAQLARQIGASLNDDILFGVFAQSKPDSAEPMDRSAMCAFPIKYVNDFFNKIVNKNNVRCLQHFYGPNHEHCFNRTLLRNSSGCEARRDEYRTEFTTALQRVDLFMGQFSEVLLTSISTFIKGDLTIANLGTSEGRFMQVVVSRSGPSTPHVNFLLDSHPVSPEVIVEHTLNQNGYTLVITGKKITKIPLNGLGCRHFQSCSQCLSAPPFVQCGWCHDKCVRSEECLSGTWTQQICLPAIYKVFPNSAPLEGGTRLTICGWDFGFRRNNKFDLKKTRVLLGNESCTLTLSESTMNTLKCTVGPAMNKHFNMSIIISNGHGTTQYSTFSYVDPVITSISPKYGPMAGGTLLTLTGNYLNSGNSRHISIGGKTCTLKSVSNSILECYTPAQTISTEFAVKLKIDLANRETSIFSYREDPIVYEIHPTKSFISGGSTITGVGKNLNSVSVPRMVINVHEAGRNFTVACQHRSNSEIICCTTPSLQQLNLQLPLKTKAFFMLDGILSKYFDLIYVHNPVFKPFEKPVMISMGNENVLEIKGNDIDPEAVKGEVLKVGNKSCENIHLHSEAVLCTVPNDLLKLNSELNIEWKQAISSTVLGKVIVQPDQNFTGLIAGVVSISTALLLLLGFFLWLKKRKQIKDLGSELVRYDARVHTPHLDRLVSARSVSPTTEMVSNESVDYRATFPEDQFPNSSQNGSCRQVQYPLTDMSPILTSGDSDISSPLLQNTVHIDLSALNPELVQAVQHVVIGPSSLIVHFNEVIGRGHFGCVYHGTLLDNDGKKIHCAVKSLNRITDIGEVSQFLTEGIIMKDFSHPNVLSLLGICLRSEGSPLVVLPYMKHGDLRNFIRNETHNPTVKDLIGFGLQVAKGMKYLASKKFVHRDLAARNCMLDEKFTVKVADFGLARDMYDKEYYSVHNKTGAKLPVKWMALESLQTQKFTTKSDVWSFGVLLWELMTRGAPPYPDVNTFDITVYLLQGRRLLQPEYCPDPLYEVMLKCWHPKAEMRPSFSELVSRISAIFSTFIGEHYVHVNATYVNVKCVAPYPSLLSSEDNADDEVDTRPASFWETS

On to `CS(=O)(=O)Nc1ccccc1-c1cnc2c(-c3ccccn3)c(N)nn2c1` [Compound V-16], for which the Ki was 0.5 to 5 µM at Itk, above 5 µM at JAK3 and 0.5 to 5 µM at c-Met.

As to `CN1CCCN(c2ncccc2-c2cnc3c(-c4ccccn4)c(N)nn3c2)CC1` [Compound V-267], the Ki was 0.5 to 5 µM on Itk, above 5 µM at JAK3 and 0.5 to 5 µM on c-Met.

Consider `Cc1cnc2c(-c3cc(N[C@@H]4CCOC4)ncn3)c(N)nn2c1` [Compound V-335], for which the Ki at Itk is 0.5 to 5 µM; at JAK3 it was 0.5 to 5 µM; at c-Met it was below 0.5 µM.

Consider `Nc1nn2cc(-c3cccnc3N3CCN(Cc4ccncc4)CC3)cnc2c1-c1ccccn1` [Compound V-264], for which the Ki at Itk was 0.5 to 5 µM; on JAK3, above 5 µM; at c-Met it was 0.5 to 5 µM.

In the case of `Cc1cnc2c(-c3cc(N4CCC(C(N)=O)CC4)ncn3)c(N)nn2c1` [Compound V-341], the Ki at Itk, at JAK3 and at c-Met was 0.5 to 5 µM in each case.

Regarding `Nc1nn2cc(CCCN3CCCC3)cnc2c1-c1ccccn1` [Compound V-311], the Ki at Itk was 0.5 to 5 µM; at JAK3 it was above 5 µM; on c-Met, below 0.5 µM.

For the compound `CN(Cc1ccccc1)C(=O)c1c(N)nn2cc(-c3ccncn3)cnc12` [Compound V-41], the Ki at Itk was 0.5 to 5 µM; on JAK3, above 5 µM; on c-Met, 0.5 to 5 µM.

In the case of `Nc1nn2cc(-c3cccnc3N3CCOCC3)cnc2c1-c1ccccn1` [Compound V-257], the Ki at Itk is 0.5 to 5 µM; on JAK3, above 5 µM; at c-Met it was 0.5 to 5 µM.

As to `COc1ccc(-c2cnc3c(N)c(N)nn3c2)cc1` [Compound V-240], the figures for the Ki at Itk, on JAK3 and at c-Met were 0.5 to 5 µM, above 5 µM and 0.5 to 5 µM, respectively.

As to `CC(C)NCCCc1cnc2c(-c3ccccn3)c(N)nn2c1` [Compound V-327], the results for the inhibition constant (Ki) on Itk, on JAK3 and on c-Met were 0.5 to 5 µM, above 5 µM and 0.5 to 5 µM, respectively.

Regarding `Nc1nn2cc(-c3cccnc3N3CC[C@H](CN4CCCC4)C3)cnc2c1-c1ccccn1` [Compound V-261], the Ki on Itk was 0.5 to 5 µM; at JAK3, above 5 µM; at c-Met, 0.5 to 5 µM.

Consider `COCCNc1cc(-c2cnc3c(-c4ccccn4)c(N)nn3c2)ccn1` [Compound V-245], for which the Ki was 0.5 to 5 µM at Itk, above 5 µM at JAK3 and below 0.5 µM on c-Met.

As to `Nc1nn2cc(-c3ccncn3)cnc2c1C(=O)NCc1ccc(F)cc1F` [Compound V-32], the Ki on Itk is 0.5 to 5 µM; on JAK3, above 5 µM; at c-Met, 0.5 to 5 µM.

`Nc1nn2cc(-c3ccc(C=O)cc3)cnc2c1-c1ccccn1` [Compound V-193]: on Itk, the Ki is below 0.5 µM.

`N#Cc1ccc(-c2cnc3c(-c4ccccn4)c(N)nn3c2)cc1` [Compound V-196]: the Ki on Itk was below 0.5 µM.

For the compound `Cc1cnc2c(-c3cc(N[C@H](C)c4ccccc4)ncn3)c(N)nn2c1` [Compound V-300], the Ki at Itk is 0.5 to 5 µM; at c-Met, below 0.5 µM.

The compound `Cc1ccn2nc(N)c(-c3ccccc3)c2n1` [Compound V-1] displayed a Ki at JAK3 above 5 µM.

`Nc1nn2cc(-c3ccc(CCl)cc3)cnc2c1-c1ccccn1` [Compound V-203]: on Itk, the Ki was below 0.5 µM.

As to `CCN(CC)C(=O)C1CCCN(c2cc(-c3c(N)nn4cc(C)cnc34)ncn2)C1` (centres unmarked) [Compound V-338], the Ki at Itk was 0.5 to 5 µM; at c-Met, below 0.5 µM.

Take `Nc1nn2cc(-c3cccc(C(=O)N4CCC(N5CCCC5)CC4)n3)cnc2c1-c1ccccn1` [Compound V-121]: the Ki is 0.5 to 5 µM at Itk and above 5 µM on JAK3.

Consider `Cc1cnc2c(-c3cc(N[C@@H](C)c4ccccc4)ncn3)c(N)nn2c1` [Compound V-301], for which the Ki at Itk and at c-Met was 0.5 to 5 µM throughout.

Regarding `COc1ccc(-c2cn3nc(N)c(-c4ccccn4)c3nc2C(F)(F)F)cc1` [Compound V-218], the Ki on Itk is 0.5 to 5 µM.

Take `Nc1nn2cc(-c3cccc(CCl)c3)cnc2c1-c1ccccn1` [Compound V-210]: on Itk, the Ki is below 0.5 µM.

In the case of `Nc1nn2cc(-c3ccc(N4CCCC4)nc3)cnc2c1-c1ccccn1` [Compound V-143], the Ki is 0.5 to 5 µM at Itk and above 5 µM on JAK3.

Take `COc1ccc(-c2cnc3c(-c4ccc(C)cn4)c(N)nn3c2)cc1` [Compound V-220]: the Ki on Itk fell in the range of 0.5 to 5 µM.
